US6737383B1, “Herbicidal oxadiazolidines” (priority 1999, dated 2004)

What was measured:
[1] = system: smallflower flatsedge; test: Test B flood test smallflower flatsedge; format: in vivo, Cyperus difformis
How it was run: (§1)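 Read-out is a visual response score from 0 (no effect) to 10 (complete control), assigned by comparison with untreated controls. Treatment was applied at the 2-leaf stage, and plants stayed in the greenhouse for twelve to sixteen days before scoring.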

[2] = system: wild oat; test: Test B pre/postemergence wild oat; format: in vivo, Avena fatua
How it was run: (§2)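 Response is a visual 0-to-10 score relative to untreated plants, where 0 means no effect and 10 means complete control, taken twelve to sixteen days after application. Treatments went onto soil at planting and onto foliage of 1- to 4-leaf plants, using a surfactant-containing non-phytotoxic solvent.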

[3] = system: bedstraw; test: Test B pre/postemergence bedstraw; format: in vivo, Galium aparine
How it was run: as §2

[4] = system: surinam grass; test: Test B pre/postemergence surinam grass; format: in vivo, Brachiaria decumbens
How it was run: as §2

[5] = system: blackgrass; test: Test B pre/postemergence blackgrass; format: in vivo, Alopecurus myosuroides
How it was run: as §2

[6] = system: soybean; test: Test B pre/postemergence soybean; format: in vivo, Glycine max
How it was run: as §2

[7] = system: morningglory; test: Test B pre/postemergence morningglory; format: in vivo, Ipomoea hederacea
How it was run: as §2

[8] = system: wheat; test: Test B pre/postemergence wheat; format: in vivo, Triticum aestivum
How it was run: as §2

[9] = system: pigweed; test: Test B pre/postemergence pigweed; format: in vivo, Amaranthus retroflexus
How it was run: as §2

[10] = system: corn; test: Test B pre/postemergence corn; format: in vivo, Zea mays
How it was run: as §2

[11] = system: purple nutsedge; test: Test B pre/postemergence purple nutsedge; format: in vivo, Cyperus rotundus
How it was run: as §2

[12] = system: duck salad; test: Test B flood test duck salad; format: in vivo, Heteranthera limosa
How it was run: as §1

[13] = system: rice; test: Test B flood test rice; format: in vivo, Oryza sativa
How it was run: as §1

[14] = system: giant foxtail; test: Test B pre/postemergence giant foxtail; format: in vivo, Setaria faberii
How it was run: as §2

[15] = system: velvetleaf; test: Test B pre/postemergence velvetleaf; format: in vivo, Abutilon theophrasti
How it was run: as §2

[16] = system: crabgrass; test: Test B pre/postemergence crabgrass; format: in vivo, Digitaria sanguinalis
How it was run: as §2

[17] = Postemergence, Rate 62 g/ha, scale 0 to 10, 0 is no effect, 10 is complete control
[18] = Rate 125 g/ha, Postemergence section (flood test species), scale 0 to 10, 0 no effect, 10 complete control
[19] = flood test, listed under Postemergence, Rate 250 g/ha, scale 0 to 10, 0 no effect, 10 complete control
[20] = Postemergence, Rate 250 g/ha, scale 0 to 10, 0 no effect, 10 complete control
[21] = Preemergence, Rate 31 g/ha, visual rating, scale 0 to 10 (0 no effect, 10 complete control)
[22] = Preemergence, Rate 125 g/ha, scale 0 to 10 (0 no effect, 10 complete control)
[23] = Preemergence, Rate 250 g/ha, scale of 0 to 10 where 0 is no effect and 10 is complete control
[24] = Rate 125 g/ha, Postemergence, scale 0 to 10, 0 no effect, 10 complete control
[25] = Preemergence, Rate 62 g/ha, scale 0 to 10, 0 is no effect, 10 is complete control
[26] = Rate 31 g/ha, Postemergence, scale 0 to 10
[27] = Rate 500 g/ha, Postemergence section of Table B, 0 to 10 scale (0 no effect, 10 complete control)

CCN(C(=O)n1oc(=O)n(-c2c(C)cccc2C)c1=O)C1CCCCC1 [Compound 27]
S. Flatsedge plant response rating [1, 17]: 0
S. Flatsedge plant response rating [1, 18]: 0
S. Flatsedge plant response rating [1, 19]: 0
Wild oats plant response rating [2, 17]: 0
Wild oats plant response rating [2, 20]: 0
Wild oats plant response rating [2, 21]: 0
Plant response rating, Wild oats [2, 22]: 0
Plant response rating, Wild oats [2, 23]: 0
Wild oats plant response rating [2, 24]: 0
Bedstraw plant response rating [3, 17]: 0
Bedstraw plant response rating [3, 20]: 0
Bedstraw plant response rating [3, 21]: 0
Plant response rating, Bedstraw [3, 25]: 0
Plant response rating, Bedstraw [3, 22]: 0
Plant response rating, Bedstraw [3, 23]: 0
Bedstraw plant response rating [3, 26]: 0
Bedstraw plant response rating [3, 24]: 0
B. signalgrass plant response rating [4, 17]: 0
B. signalgrass plant response rating [4, 20]: 0
B. signalgrass plant response rating [4, 21]: 0
Plant response rating, B. signalgrass [4, 25]: 0
Plant response rating, B. signalgrass [4, 22]: 0
Plant response rating, B. signalgrass [4, 23]: 0
B. signalgrass plant response rating [4, 26]: 0
B. signalgrass plant response rating [4, 24]: 0
Blackgrass plant response rating [5, 17]: 0
Blackgrass plant response rating [5, 20]: 0
Blackgrass plant response rating [5, 21]: 0
Plant response rating, Blackgrass [5, 25]: 0
Plant response rating, Blackgrass [5, 22]: 0
Plant response rating, Blackgrass [5, 23]: 0
Blackgrass plant response rating [5, 26]: 0
Blackgrass plant response rating [5, 24]: 0
Soybean plant response rating [6, 17]: 1
Soybean plant response rating [6, 20]: 2
Soybean plant response rating [6, 21]: 0
Plant response rating, Soybean [6, 25]: 0
Plant response rating, Soybean [6, 22]: 0
Plant response rating, Soybean [6, 23]: 0
Soybean plant response rating [6, 24]: 1
Morningglory plant response rating [7, 17]: 0
Morningglory plant response rating [7, 20]: 0
Morningglory plant response rating [7, 21]: 0
Plant response rating, Morningglory [7, 25]: 0
Plant response rating, Morningglory [7, 22]: 0
Plant response rating, Morningglory [7, 23]: 0
Morningglory plant response rating [7, 26]: 0
Morningglory plant response rating [7, 24]: 0
Wheat plant response rating [8, 17]: 0
Wheat plant response rating [8, 20]: 0
Wheat plant response rating [8, 21]: 0
Plant response rating, Wheat [8, 25]: 0
Plant response rating, Wheat [8, 22]: 0
Plant response rating, Wheat [8, 23]: 0
Wheat plant response rating [8, 24]: 0
Redroot pigweed plant response rating [9, 17]: 0
Redroot pigweed plant response rating [9, 20]: 0
Redroot pigweed plant response rating [9, 21]: 0
Plant response rating, Redroot pigweed [9, 25]: 0
Plant response rating, Redroot pigweed [9, 22]: 0
Plant response rating, Redroot pigweed [9, 23]: 0
Redroot pigweed plant response rating [9, 26]: 0
Redroot pigweed plant response rating [9, 24]: 0
Corn plant response rating [10, 17]: 0
Corn plant response rating [10, 20]: 0
Corn plant response rating [10, 21]: 0
Plant response rating, Corn [10, 25]: 0
Plant response rating, Corn [10, 22]: 0
Plant response rating, Corn [10, 23]: 0
Corn plant response rating [10, 26]: 0
Corn plant response rating [10, 24]: 0
Nutsedge plant response rating [11, 17]: 0
Nutsedge plant response rating [11, 20]: 0
Nutsedge plant response rating [11, 21]: 0
Plant response rating, Nutsedge [11, 25]: 0
Plant response rating, Nutsedge [11, 22]: 0
Plant response rating, Nutsedge [11, 23]: 0
Nutsedge plant response rating [11, 26]: 0
Nutsedge plant response rating [11, 24]: 0
Ducksalad plant response rating [12, 17]: 0
Ducksalad plant response rating [12, 18]: 0
Ducksalad plant response rating [12, 27]: 0
Ducksalad plant response rating [12, 19]: 0
Rice plant response rating [13, 17]: 0
Rice plant response rating [13, 18]: 0
Rice plant response rating [13, 27]: 2
Rice plant response rating [13, 19]: 0
Giant foxtail plant response rating [14, 17]: 0
Giant foxtail plant response rating [14, 20]: 0
Giant foxtail plant response rating [14, 21]: 0
Plant response rating, Giant foxtail [14, 25]: 0
Plant response rating, Giant foxtail [14, 22]: 0
Plant response rating, Giant foxtail [14, 23]: 0
Giant foxtail plant response rating [14, 26]: 0
Giant foxtail plant response rating [14, 24]: 0
Velvetleaf plant response rating [15, 17]: 0
Velvetleaf plant response rating [15, 20]: 0
Velvetleaf plant response rating [15, 21]: 0
Plant response rating, Velvetleaf [15, 25]: 0
Plant response rating, Velvetleaf [15, 22]: 0
Plant response rating, Velvetleaf [15, 23]: 0
Velvetleaf plant response rating [15, 24]: 0
Crabgrass plant response rating [16, 17]: 0
Crabgrass plant response rating [16, 20]: 0
Crabgrass plant response rating [16, 21]: 0
Plant response rating, Crabgrass [16, 25]: 0
Plant response rating, Crabgrass [16, 22]: 0
Plant response rating, Crabgrass [16, 23]: 0
Crabgrass plant response rating [16, 26]: 0
Crabgrass plant response rating [16, 24]: 0
